Data published in US5849731A, “Indole derivatives and medical application thereof” (Toray Industries, Inc., priority 1995, dated 1998).

test system: capsaicin-induced cough; assay: Antitussive action in rat, capsaicin-induced cough; assay type: in vivo; conditions: ip, 0.5 h, dosage for 50% cough inhibition, intraperitoneal, 10% DMSO solution, 30 minutes after administration
Experimental: Evaluation of Antitussive Action in Rat as a Model for Capsaicin-Induced Cough
Cough was induced by forcing rats to inhale capsaicin (60 μM) which was nebulized by an ultrasonic nebulizer, and fed to caps over the rats' heads through silicone tubes by a respirator. Capsaicin was fed for inhalation at a rate of 70 times/min. and 10 ml each time.
Two hundred and seventy minutes before the drug administration, capsaicin was inhaled for 5 minutes, and inducement of coughing was confirmed during this period. Thirty minutes after the drug administration, capsaicin was inhaled for 5 minutes, and the number of induced coughs during capsaicin inhalation was counted. Antitussive effect was evaluated by determining an inhibitory ratio, namely, the ratio of the number of coughs after the drug administration to that before the drug administration. Capsaicin was dissolved in saline. Each drug was dissolved in a 10% DMSO solution and intraperitoneally administered. The effect of the drug is expressed with an ED50 value which is the dosage for 50% cough inhibition

| SMILES | ED50 |
| --- | --- |
| Oc1ccc2c3c1O[C@H]1c4c(c5cccc6c5n4CC6)C[C@@]4(O)[C@@H](C2)N(CC2CC2)CC[C@]314 [Compound 1, 17-Cyclopropylmethyl-6,7-didehydro-4,5α-epoxy-3,14β-dihydroxy-1',7'-ethylene-6,7,2',3'-indolomorphinan] | 9.14 µg/kg |
| COc1ccc2c3c1O[C@H]1c4c(c5ccc(OC)c6c5n4CCC6)C[C@@]4(O)[C@@H](C2)N(CC2CC2)CC[C@]314 [Compound 12, 17-cyclopropylmethyl-6,7-didehydro-4,5α-epoxy-3,6'-dimethoxy-14β-hydroxy-1',7'-trimethylene-6,7,2',3'-indolomorphinan] | 2.5 µg/kg |
| COc1ccc2c3c1O[C@H]1c4c(c5cc(C)cc6c5n4CCC6)C[C@@]4(O)[C@@H](C2)N(CC2CC2)CC[C@]314 [Compound 13, 17-cyclopropylmethyl-6,7-didehydro-4,5α-epoxy-3-methoxy-14β-hydroxy-1',7'-trimethylene-5'-methyl-6,7,2',3'-indolomorphinan] | 5.33 µg/kg |
| COc1ccc2c3c1O[C@H]1c4c(c5c(C)ccc6c5n4CCC6)C[C@@]4(O)[C@@H](C2)N(CC2CC2)CC[C@]314 [Compound 14, 17-cyclopropylmethyl-6,7-didehydro-4,5α-epoxy-3-methoxy-14β-hydroxy-1',7'-trimethylene-4'-methyl-6,7,2',3'-indolomorphinan] | 23.8 µg/kg |
| COc1ccc2c3c1O[C@H]1c4c(c5cccc6c5n4CCCC6)C[C@@]4(O)[C@@H](C2)N(CC2CC2)CC[C@]314 [Compound 15, 17-cyclopropylmethyl-6,7-didehydro-4,5α-epoxy-3-methoxy-14β-hydroxy-1',7'-tetramethylene-6,7,2',3'-indolomorphinan] | 9.68 µg/kg |
| COc1ccc2c3c1O[C@H]1c4c(c5cc(F)cc6c5n4CCC6)C[C@@]4(O)[C@@H](C2)N(CC2CC2)CC[C@]314 [Compound 16, 17-cyclopropylmethyl-6,7-didehydro-4,5α-epoxy-3-methoxy-14β-hydroxy-1',7'-trimethylene-5'-fluoro-6,7,2',3'-indolomorphinan] | 4.73 µg/kg |
| COc1ccc2c3c1O[C@H]1c4c(c5cccc6c5n4Cc4ccccc4-6)C[C@@]4(O)[C@@H](C2)N(CC2CC2)CC[C@]314 [Compound 17, 17-cyclopropylmethyl-6,7-didehydro-4,5α-epoxy-3-methoxy-14β-hydroxy-1',7'-(2",3"-benzotrimethylene)-6,7,2',3'-indolomorphinan] | 5.02 µg/kg |
| COc1ccc2c3c1O[C@H]1c4c(c5cc(Cl)cc6c5n4CCC6)C[C@@]4(O)[C@@H](C2)N(CC2CC2)CC[C@]314 [Compound 18, 17-cyclopropylmethyl-6,7-didehydro-4,5α-epoxy-3-methoxy-14β-hydroxy-1',7'-trimethylene-5'-chloro-6,7,2',3'-indolomorphinan] | 13.4 µg/kg |
| C=CCN1CC[C@]23c4c5ccc(OC)c4O[C@H]2c2c(c4cccc6c4n2CCC6)C[C@@]3(O)[C@H]1C5 [Compound 34, 17-allyl-6,7-didehydro-4,5α-epoxy-3-methoxy-14β-hydroxy-1',7'-trimethylene-6,7,2',3'-indolomorphinan] | 1.1 µg/kg |
| COc1ccc2c3c1O[C@H]1c4c(c5cc(Br)cc6c5n4CCC6)C[C@@]4(O)[C@@H](C2)N(CC2CC2)CC[C@]314 [Compound 35, 17-cyclopropylmethyl-6,7-didehydro-4,5α-epoxy-3-methoxy-14β-hydroxy-1',7'-trimethylene-5'-bromo-6,7,2',3'-indolomorphinan] | 21.2 µg/kg |
| COc1ccc2c3c1O[C@H]1c4c(c5cccc6c5n4CCC6(C)C)C[C@@]4(O)[C@@H](C2)N(CC2CC2)CC[C@]314 [Compound 40, 17-cyclopropylmethyl-6,7-didehydro-4,5α-epoxy-3-methoxy-14β-hydroxy-1',7'-(1,1-dimethylpropano)-6,7,2',3'-indolomorphinan] | 2.46 µg/kg |
| COc1ccc2c3c1O[C@H]1c4c(c5ccc6cccc7c6c5n4CC7)C[C@@]4(O)[C@@H](C2)N(CC2CC2)CC[C@]314 [Compound 42, 17-cyclopropylmethyl-6,7-didehydro-4,5α-epoxy-3-methoxy-14β-hydroxy-1',3"-ethylene-6',7'-benzo-6,7,2',3'-indolomorphinan] | 21.1 µg/kg |
| COc1ccc2c3c1O[C@H]1c4c(c5c(OC)ccc6c5n4CCC6)C[C@@]4(O)[C@@H](C2)N(CC2CC2)CC[C@]314 [Compound 44, 17-cyclopropylmethyl-6,7-didehydro-4,5α-epoxy-3,4'-dimethoxy-14β-hydroxy-1',7'-trimethylene-6,7,2',3'-indolomorphinan] | 10.9 µg/kg |

molecular target: T1, δ-opioid (Mus musculus, UniProt P32300); assay: δ-opioid antagonism against DPDPE in mouse vas deferens (MVD); assay type: biochemical, mouse (male ddy strain); conditions: not given
T1 construct: Each of the vas deferens isolated from the mice was hung in a Magnus tube; from tissue; host or cells: isolated vas deferens of male ddy strain mice
T1 sequence (P32300 whole entry): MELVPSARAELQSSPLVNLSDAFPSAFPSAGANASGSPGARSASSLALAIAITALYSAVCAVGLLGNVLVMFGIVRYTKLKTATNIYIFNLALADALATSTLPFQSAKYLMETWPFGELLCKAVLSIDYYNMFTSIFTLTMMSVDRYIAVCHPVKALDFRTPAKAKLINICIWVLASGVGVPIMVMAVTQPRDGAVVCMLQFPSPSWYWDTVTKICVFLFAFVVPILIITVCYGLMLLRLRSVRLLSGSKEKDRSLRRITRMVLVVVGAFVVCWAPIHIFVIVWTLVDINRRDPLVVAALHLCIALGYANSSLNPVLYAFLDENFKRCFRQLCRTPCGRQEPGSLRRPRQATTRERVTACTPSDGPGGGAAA
Experimental: Using mouse vas deferens (MVD), antagonistic compounds were examined for antagonism against a δ-opioid agonist DPDPE, and agonistic compounds were examined for inhibitory activity against MVD contraction by electric stimulation, and for antagonism by a δ-opioid antagonist NTI.
Male ddy strain mice were used in this experiment. Each of the vas deferens isolated from the mice was hung in a Magnus tube which was filled with a Krebes-Henseleit solution (NaCl […]; KCl 4.7 mM; CaCl2 2.5 mM; KH2 PO4 1.1 mM; NaHCO3 25 mM; glucose 11 mM), and aerated with a gas of 5% carbon dioxide and 95% oxygen and maintained at 37° C. Electric stimulation was applied through upper and lower ring-shaped platinum electrodes at 0.1 Hz and 5.0 mS. Tissue contraction was recorded on a polygraph using an isometric transducer.
Initially, DPDPE was added in a cumulative manner to determine the IC50 value (concentration for 50% inhibition of contraction induced by electric stimulation). Next, 100 nM of a sample compound was added to the system beforehand, and 20 minutes later, DPDPE was added in a cumulative manner. According to the above procedure, the ratio of the IC50 value of DPDPE in the presence of the sample compound to that in the absence of it was determined, and the pA2 value was calculated in accordance with the Schild, et al.'s method [Schild, H. O., Br. J. Pharamacol. Chamother. 4, 277 (1949)].

| SMILES | Kb |
| --- | --- |
| Oc1ccc2c3c1O[C@H]1c4c(c5cc(Cl)cc6c5n4CCC6)C[C@@]4(O)[C@@H](C2)N(CC2CC2)CC[C@]314 [Compound 8, 17-cyclopropylmethyl-6,7-didehydro-4,5α-epoxy-3,14β-dihydroxy-1',7'-trimethylene-5'-chloro-6,7,2',3'-indolomorphinan] | 5.01 nM |
| COc1cc2c3c(c1)c1c(n3CCC2)[C@@H]2Oc3c(O)ccc4c3[C@@]23CCN(CC2CC2)[C@H](C4)[C@]3(O)C1 [Compound 19, 17-cyclopropylmethyl-6,7-didehydro-4,5α-epoxy-3,14β-dihydroxy-1',7'-trimethylene-5'-methoxy-6,7,2',3'-indolomorphinan] | 1 nM |
| Oc1ccc2c3c1O[C@H]1c4c(c5cc(Br)cc6c5n4CCC6)C[C@@]4(O)[C@@H](C2)N(CC2CC2)CC[C@]314 [Compound 20, 17-cyclopropylmethyl-6,7-didehydro-4,5α-epoxy-3,14β-dihydroxy-1',7'-trimethylene-5'-bromo-6,7,2',3'-indolomorphinan] | 3.98 nM |
| Oc1ccc2c3c1O[C@H]1c4c(c5cccc6c5n4CCCCC6)C[C@@]4(O)[C@@H](C2)N(CC2CC2)CC[C@]314 [Compound 21, 17-cyclopropylmethyl-6,7-didehydro-4,5α-epoxy-3,14β-dihydroxy-1',7'-pentamethylene-6,7,2',3'-indolomorphinan] | 10 nM |
| Oc1ccc2c3c1O[C@H]1c4c(c5cccc6c5n4CCS6)C[C@@]4(O)[C@@H](C2)N(CC2CC2)CC[C@]314 [Compound 22, 17-cyclopropylmethyl-6,7-didehydro-4,5α-epoxy-3,14β-dihydroxy-7',1'-epithioethano-6,7,2',3'-indolomorphinan] | 0.794 nM |
| Oc1ccc2c3c1O[C@H]1c4c(c5cccc6c5n4CCO6)C[C@@]4(O)[C@@H](C2)N(CC2CC2)CC[C@]314 [Compound 23, 17-cyclopropylmethyl-6,7-didehydro-4,5α-epoxy-3,14β-dihydroxy-7',1'-epoxyethano-6,7,2',3'-indolomorphinan] | 0.158 nM |
| Oc1ccc2c3c1O[C@H]1c4c(c5c(C(F)(F)F)ccc6c5n4CCC6)C[C@@]4(O)[C@@H](C2)N(CC2CC2)CC[C@]314 [Compound 24, 17-cyclopropylmethyl-6,7-didehydro-4,5α-epoxy-3,14β-dihydroxy-1',7'-trimethylene-4'-trifluoromethyl-6,7,2',3'-indolomorphinan] | 10 nM |
| CC1(C)Cc2cccc3c4c(n(c23)C1)[C@@H]1Oc2c(O)ccc3c2[C@@]12CCN(CC1CC1)[C@H](C3)[C@]2(O)C4 [Compound 26, 17-cyclopropylmethyl-6,7-didehydro-4,5α-epoxy-3,14β-dihydroxy-1',7'-(2,2-dimethylpropano)-6,7,2',3'-indolomorphinan] | 3.16 nM |
| COc1ccc2c3c1c1c(n3CCC2)[C@@H]2Oc3c(O)ccc4c3[C@@]23CCN(CC2CC2)[C@H](C4)[C@]3(O)C1 [Compound 27, 17-cyclopropylmethyl-6,7-didehydro-4,5α-epoxy-3,14β-dihydroxy-1',7'-trimethylene-4'-methoxy-6,7,2',3'-indolomorphinan] | 12.6 nM |
| C=CCN1CC[C@]23c4c5ccc(O)c4O[C@H]2c2c(c4cccc6c4n2CCC6)C[C@@]3(O)[C@H]1C5 [Compound 30, 17-allyl-6,7-didehydro-4,5α-epoxy-3,14β-dihydroxy-1',7'-trimethylene-6,7,2',3'-indolomorphinan] | 12.6 nM |
| CO[C@@]12Cc3c(n4c5c(cccc35)CCC4)[C@@H]3Oc4c(O)ccc5c4[C@@]31CCN(CC1CC1)[C@@H]2C5 [Compound 66, 17-cyclopropylmethyl-6,7-didehydro-4,5α-epoxy-3-hydroxy-14β-methoxy-1',7'-trimethylene-6,7,2',3'-indolomorphinan] | 0.316 nM |

same assay, conditions: MVD; 100 nM sample compound added 20 minutes before cumulative DPDPE; Schild method

| SMILES | pA2 |
| --- | --- |
| Oc1ccc2c3c1O[C@H]1c4c(c5cccc6c5n4CC6)C[C@@]4(O)[C@@H](C2)N(CC2CC2)CC[C@]314 [Compound 1, 17-Cyclopropylmethyl-6,7-didehydro-4,5α-epoxy-3,14β-dihydroxy-1',7'-ethylene-6,7,2',3'-indolomorphinan] | 9.2 |
